Experimental findings from patent publication US20060063198A1, “Diagnostic marker” (priority 2004, published 2006) are described below.

One series has as its system human neutrophils. Briefly: Neutrophil chemotaxis in a modified Boyden chamber assay. As to conditions: synthetic peptides, fMLP as comparator. The series is classed as cell-based. As to the method:
Serum and plasma samples were collected from six female healthy volunteers aged 20-29, and ten ACS patients. Clinical diagnosis of the ten ACS patients indicated one unstable angina patient and 9 patients with acute myocardial infarction (AMI). The unstable angina patient arrived to the Emergency Department 30.5 hours after symptoms onset. Seven of the nine AMI patients presented to the Emergency Department within 1.5-3.5 hours after onset of chest pain. The other two AMI patients arrived 10 hours and 24 hours after symptoms onset. Blood samples were collected upon arrival of the patient, centrifuged and stored at −70° C. for up to 21 days. Serum and plasma samples were tested for neutrophil chemotactic activity using a modified Boyden chamber technique and human neutrophils as indicator cells (see, for example, Elgebaly, S. A., et al. J. Mol. Cell. Cardiol. 21:585-593, 1989; and Elgebaly, S. A., et al. Am. J. Pathol. 137:1233-1241, 1990, each of which is incorporated by reference in its entirety).
Samples were also fractionated using high performance liquid chromatography (HPLC) and a size exclusion column (1-300 kDa). The 5 kDa and lower molecular weight fractions were collected and assayed for neutrophil chemotactic activity. The standard synthetic chemoattractant fMet-Leu-Phe (f-MLP) was used as the positive control for 100% chemotactic response. Hank's Balanced Salt Solution (HBSS) was the negative control for random migration. Neutrophil migration was reported as chemotactic index of counted cells trapped within 10-micron membrane layer. The average of three readings were calculated for each filter. [formula]
(§1) A synthetic peptide having the sequence: N-formyl-[…] Synthetic peptides of sequence: MIINHNLAAINSHR (i.e., unmodified peptide 3) and of sequence: […]

The subject of a further series is neutrophils. Briefly: Chemotactic activity retained after overnight refrigeration. The series is classed as cell-based. As to conditions: unlike fMLP.
Description: as §1

No end group written: not given here. *: point of attachment. For = O=C*

In the case of MIINHNLAAINSHRSPGADGNGGEAMPGGG [3+9], the chemotaxis of neutrophils result with human neutrophils is “promoted chemotaxis to a lesser degree”. Also, the “chemotactic activity when refrigerated overnight” value (“chemotactic activity” below) in the series with neutrophils is listed as “retained chemotactic activity”.

Regarding “N-formyl-MIINHNLAAINSHR (For-MIINHNLAAINSHR) [N-formyl-3]”, the chemotaxis of neutrophils entry with human neutrophils is given as “promoted strong chemotaxis”. For the same substance, the “chemotactic activity” value with neutrophils is given as “retained chemotactic activity”.

For “N-formyl-MIINHNLAAINSHRSPGADGNGGEAMPGGGK (For-MIINHNLAAINSHRSPGADGNGGEAMPGGGK) [N-formyl-3+9+K]”, the chemotaxis of neutrophils result with human neutrophils is on record as “promoted strong chemotaxis”. Further, in the series on neutrophils, the “chemotactic activity” value is on record as “retained chemotactic activity”. On to MIINHNLAAINSHR [sequence 3], for which, in the series on human neutrophils, the chemotaxis of neutrophils result was “promoted chemotaxis to a lesser degree”. On to SPGADGNGGEAMPGGG [sequence 9], for which the chemotaxis of neutrophils result in the series on human neutrophils was “no chemotactic activity”. On the same count and under the same terms, for N-formyl-MENHK [N-formyl-7] the value was “promote chemotaxis to a lesser degree than fMLP”; for “N-formyl-MNTRAMNDASGR (For-MNTRAMNDASGR) [N-formyl-5]”, “promote chemotaxis to a lesser degree than fMLP”.
